Tested on: 242566-281-R-J2-PDC complex spheroid viability
Assay: Anticancer human tumor 242566-281-R-J2-PDC patient-derived pancreatic carcinoma cell line growth inhibition [RAS]
Conditions: for IC50: curve of first compound; for viability, T/C: stronger effect = lower value
Method in brief: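 Multi-cell-type spheroids: tumor cells plus HUVEC endothelial cells and mesenchymal stem cells. RAS-pathway inhibitors were combined with targeted agents, each dosed in half-log steps down from clinical Cmax, or from 10 microM when Cmax was unknown.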
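Further: spheroids exposed to compound for 7 days before readout.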
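Wherever viability, T/C is given: 100% = DMSO vehicle control wells.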

## CC(C)n1nc(-c2ccc3oc(N)nc3c2)c2c(N)ncnc21 + C#Cc1c(F)ccc2cc(O)cc(-c3ncc4c(N5CC6CCC(C5)N6)nc(OCC56CCCN5CC(F)C6)nc4c3F)c12
Second compound 0.0316 µM
  IC50: 67.5 nM
Second compound 0.1 µM
  IC50: 9.86 nM
Second compound 0.316 µM
  IC50: 6.58 nM
Second compound 1 µM
  IC50: 3.24 nM
Second compound 3.16 µM
  IC50: 0.918 nM
Second compound 10 µM
  IC50: 0.639 nM
Second compound 0.0316 µM, first compound 0.000316 µM
  viability, T/C: 91.9%
Second compound 0.0316 µM, first compound 0.001 µM
  viability, T/C: 95.8%
Second compound 0.0316 µM, first compound 0.00316 µM
  viability, T/C: 77.1%
Second compound 0.0316 µM, first compound 0.01 µM
  viability, T/C: 61.3%
Second compound 0.0316 µM, first compound 0.0316 µM
  viability, T/C: 50.5%
Second compound 0.0316 µM, first compound 0.1 µM
  viability, T/C: 49.3%
Second compound 0.1 µM, first compound 0.000316 µM
  viability, T/C: 81.4%
Second compound 0.1 µM, first compound 0.001 µM
  viability, T/C: 80.2%
Second compound 0.1 µM, first compound 0.00316 µM
  viability, T/C: 70.3%
Second compound 0.1 µM, first compound 0.01 µM
  viability, T/C: 49.9%
Second compound 0.1 µM, first compound 0.0316 µM
  viability, T/C: 40.6%
Second compound 0.1 µM, first compound 0.1 µM
  viability, T/C: 40%
Second compound 0.316 µM, first compound 0.000316 µM
  viability, T/C: 78.3%
Second compound 0.316 µM, first compound 0.001 µM
  viability, T/C: 73.5%
Second compound 0.316 µM, first compound 0.00316 µM
  viability, T/C: 57.9%
Second compound 0.316 µM, first compound 0.01 µM
  viability, T/C: 44.5%
Second compound 0.316 µM, first compound 0.0316 µM
  viability, T/C: 38%
Second compound 0.316 µM, first compound 0.1 µM
  viability, T/C: 31.3%
Second compound 1 µM, first compound 0.000316 µM
  viability, T/C: 57.9%
Second compound 1 µM, first compound 0.001 µM
  viability, T/C: 64%
Second compound 1 µM, first compound 0.00316 µM
  viability, T/C: 50.4%
Second compound 1 µM, first compound 0.01 µM
  viability, T/C: 29.4%
Second compound 1 µM, first compound 0.0316 µM
  viability, T/C: 28.7%
Second compound 1 µM, first compound 0.1 µM
  viability, T/C: 27.8%
Second compound 3.16 µM, first compound 0.000316 µM
  viability, T/C: 63.4%
Second compound 3.16 µM, first compound 0.001 µM
  viability, T/C: 46.9%
Second compound 3.16 µM, first compound 0.00316 µM
  viability, T/C: 39.2%
Second compound 3.16 µM, first compound 0.01 µM
  viability, T/C: 30.7%
Second compound 3.16 µM, first compound 0.0316 µM
  viability, T/C: 24.1%
Second compound 3.16 µM, first compound 0.1 µM
  viability, T/C: 19.8%
Second compound 10 µM, first compound 0.000316 µM
  viability, T/C: 55%
Second compound 10 µM, first compound 0.001 µM
  viability, T/C: 48%
Second compound 10 µM, first compound 0.00316 µM
  viability, T/C: 37.9%
Second compound 10 µM, first compound 0.01 µM
  viability, T/C: 29.1%
Second compound 10 µM, first compound 0.0316 µM
  viability, T/C: 21.7%
Second compound 10 µM, first compound 0.1 µM
  viability, T/C: 17.8%

Reference: PubChem BioAssay AID2060910 (Molecular Pharmacology Branch, DTP, NCI, 2025)
